This is an account of results in patent US8765779B2, “Tricyclic derivatives and their pharmaceutical use and compositions” (Cephalon, Inc., priority 2009, dated 2014).

Like-named read-outs stand apart in the source and are kept apart here.

For the experiment, the target named is T1, human 5-HT6 receptor (Homo sapiens, UniProt P50406).
T1 construct: host or cells: CHO-K1 cells, stably transfected; membranes prepared in house
Description: Human 5-HT6 Receptor Binding Assay ([3H]LSD displacement, scintillation beads). Particulars: membranes of CHO-K1 cells with recombinant human 5-HT6, 4 nM [3H]LSD, read-out: h5-HT6 (Ki).

T1 sequence (P50406 whole entry): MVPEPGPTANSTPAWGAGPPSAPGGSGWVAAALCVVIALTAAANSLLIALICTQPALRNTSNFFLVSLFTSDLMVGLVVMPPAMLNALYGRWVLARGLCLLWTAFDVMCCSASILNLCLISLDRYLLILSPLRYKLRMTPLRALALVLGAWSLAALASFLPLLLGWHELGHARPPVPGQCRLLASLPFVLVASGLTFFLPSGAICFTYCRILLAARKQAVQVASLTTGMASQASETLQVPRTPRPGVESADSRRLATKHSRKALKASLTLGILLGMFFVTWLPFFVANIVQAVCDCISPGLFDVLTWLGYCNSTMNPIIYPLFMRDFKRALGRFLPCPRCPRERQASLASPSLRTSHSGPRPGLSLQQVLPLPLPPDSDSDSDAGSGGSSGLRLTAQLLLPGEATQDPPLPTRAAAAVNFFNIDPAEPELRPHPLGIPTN

Regarding `O=S(=O)(c1cccc(C(F)(F)F)c1)c1ccc2c(c1)OC1CNCCC21` (stereo not drawn) [Example 161, 7-{[3-(trifluoromethyl)phenyl]sulfonyl}-1,2,3,4,4a,9a-hexahydro[1]benzofuro[2,3-c]pyridine], the Ki is < 500 nM (Table 1, class symbols) and 44 nM (specific data).

With `O=S(=O)(c1ccc2c(c1)OC1CNCCC21)c1cccc(OCC2CCOCC2)c1Cl` (stereo not drawn) [Example 485], the Ki (Table 1, class symbols) is < 500 nM.

For `COc1cc(OCC2CC2)cc(S(=O)(=O)c2ccc3c(c2)OC2CNCCC32)c1` (stereo not drawn) [Example 585], the Ki (Table 1, class symbols) is < 500 nM.

As to `[O-][S+](c1ccc2c(c1)OC1CNCCC21)c1cc(F)cc(F)c1F` (stereo not drawn) [Example 385], the Ki (Table 1, class symbols) is > 1000 nM.

For the compound `CC1(C(F)(F)F)NCCc2c1oc1cc(S(=O)(=O)c3cccc(F)c3)ccc21` (racemic) [Example 37, 7-[(3-fluorophenyl)sulfonyl]-1-methyl-1-(trifluoromethyl)-1,2,3,4-tetrahydro[1]benzofuro[2,3-c]pyridine], for the setting “Table 1, class symbols”, the Ki is < 500 nM.

For `O=S(=O)(Cc1ccc(F)cc1F)Oc1ccc2c(c1)C1CCNCC1O2` (stereo not drawn) [Example 756], the Ki (Table 1, class symbols) was > 1000 nM.

In the case of `O=S(=O)(Oc1ccc2c(c1)C1CCNCC1O2)c1ccc2c(c1)OCCO2` (stereo not drawn) [Example 729], the Ki (Table 1, class symbols) is < 500 nM.

In the case of `O=S(=O)(c1cccc(Cl)c1)c1ccc2c3c(oc2c1)C1CCN1CC3` (stereo not drawn) [Example 621], the Ki (Table 1, class symbols) is < 500 nM.

For the compound `O=S(=O)(c1ccccc1Cl)c1cccc2c1OC1CNCCC21` (stereo not drawn) [Example 183], the Ki (Table 1, class symbols) is < 500 nM.

Turning to `Cc1ccc(NS(=O)(=O)c2ccc3c(c2)C2CCNCC2O3)cc1F` (stereo not drawn) [Example 851], the Ki (Table 1, class symbols) is > 1000 nM.

On to `CC(C)Oc1cccc(S(=O)(=O)c2ccc3c(c2)OC2CNCCC32)c1` (stereo not drawn) [Example 165], for which the Ki (Table 1, class symbols) was < 500 nM.

As for `O=S(=O)(Oc1ccc2c(c1)OC1CNCCC21)c1cccc(C(F)(F)F)c1` (stereo not drawn) [Example 675], the Ki (Table 1, class symbols) is < 500 nM.

In the case of `Cc1ccc(S(=O)(=O)Oc2ccc3c(c2)OC2CNCCC32)cc1F` (stereo not drawn) [Example 652], the Ki (Table 1, class symbols) was in the range of 500 to 1000 nM.

On to `CC(=O)N1CCC2c3cc(NS(=O)(=O)c4ccc5ccccc5c4)ccc3OC2C1` (stereo not drawn) [Example 814, N-(2-Acetyl-1,2,3,4,4a,9a-hexahydro[1]benzofuro[2,3-c]pyridin-6-yl)naphthalene-2-sulfonamide], for which the Ki (Table 1, class symbols) is > 1000 nM.

Consider `O=S(=O)(c1cc[n+]([O-])cc1)c1ccc2oc3c(c2c1)CCNC3` [Example 351], for which the Ki (Table 1, class symbols) was > 1000 nM.

As for `Cc1ncccc1S(=O)(=O)c1ccc2c3c(oc2c1)C(C)(C)NCC3` [Example 375], the Ki (Table 1, class symbols) is < 500 nM.

As for `O=S(=O)(c1ccccc1)c1ccc2c3c(oc2c1)CN(Cc1ccccc1)CC3` [Example 597], under “Table 1, class symbols”, the Ki lay in the range of 500 to 1000 nM.

Regarding `O=S(=O)(c1cccc(F)c1)c1ccc2c3c(oc2c1)C1(CCOCC1F)NCC3` (single isomer, unassigned) [Example 54, 3′-Fluoro-7-[(3-fluorophenyl)sulfonyl]-2′,3,3′,4,5′,6′-hexahydro-2H-spiro[1-benzofuro[2,3-c]pyridine-1,4′-pyran]], the Ki (Table 1, class symbols) is < 500 nM.

For the compound `O=S(=O)(c1cccc(C(F)(F)F)c1)c1ccc2c3c(oc2c1)C1(CCOCC1)NCC3` [Example 298], the Ki (Table 1, class symbols) was < 500 nM.

Take `O=S(=O)(c1ccc2c(c1)OC1CNCCC21)c1cccc(Cl)c1F` (stereo not drawn) [Example 422]: the Ki (Table 1, class symbols) was < 500 nM.

For `O=S(=O)(c1ccc2c(c1)OC1CNCCC21)c1cccc(Cl)c1Cl` (stereo not drawn) [Example 162], the Ki (Table 1, class symbols) was < 500 nM.

As to `O=S(=O)(c1cccc(OC(F)(F)F)c1)c1ccc2c3c([nH]c2c1)C1(CCCOC1)NCC3` (single isomer, unassigned) [Example 319], the Ki (Table 1, class symbols) is < 500 nM.

As to `O=S(=O)(c1cc(F)cc(F)c1)c1ccc2c3c(oc2c1)C1(CCOCC1)NCC3` [Example 301, 7-[(3,5-difluorophenyl)sulfonyl]-2′,3,3′,4,5′,6′-hexahydro-2H-spiro[1-benzofuro[2,3-c]pyridine-1,4′-pyran]], the Ki (Table 1, class symbols) is < 500 nM.

Turning to `O=S(=O)(Nc1ccc2c(c1)C1CCNCC1O2)c1cc(Cl)cc(Cl)c1` (stereo not drawn) [Example 828], where the note is “Table 1, class symbols”, the Ki is < 500 nM.

In the case of `CN1CCC2(C)c3cc(OS(=O)(=O)Cc4ccccc4)ccc3OC2C1` (stereo not drawn) [Example 809], the Ki (Table 1, class symbols) is > 1000 nM.

In the case of `O=S(=O)(c1ccc2c3c(oc2c1)CNCC3)c1ccccc1Cl` [Example 230], the Ki (Table 1, class symbols) is < 500 nM.

Consider `O=S(=O)(c1ccccc1)c1ccc2c3c(oc2c1)C(C(F)F)NCC3` (stereo not drawn) [Example 523], for which, for the setting “Table 1, class symbols”, the Ki is < 500 nM.

Take `CC(C)N1CCC2c3ccc(S(=O)(=O)c4ccccc4)cc3OC2C1` (stereo not drawn) [Example 608, 7-(phenylsulfonyl)-2-(propan-2-yl)-1,2,3,4,4a,9a-hexahydro[1]benzofuro[2,3-c]pyridine]: the inhibition constant (Ki) (Table 1, class symbols) is < 500 nM and the Ki (specific data) was found to be 49.4 nM.

As to “7-[(3,5-Difluorophenyl)sulfonyl]-2′,3,3′,4,4a,5′,6′,9a-octahydro-2H-spiro[1-benzofuro[2,3-c]pyridine-1,4′-pyran]hydrochloride [Example 623]”, the Ki (Table 1, class symbols) was > 1000 nM.

Take `CC1(C)NCCc2c1oc1cc(S(=O)(=O)c3cc(Cl)cnc3N)ccc21` [Example 372]: the Ki (Table 1, class symbols) was < 500 nM.

Regarding “1,2,3,4,4a,9a-hexahydro[1]benzofuro[2,3-c]pyridin-7-yl naphthalene-2-sulfonate [Example 660]”, the Ki runs as follows: (Table 1, class symbols) < 500 nM; (specific data) 11.4 nM.

Turning to `O=S(=O)(Nc1ccc2c(c1)C1CCNCC1O2)c1cccc(Cl)c1Cl` (stereo not drawn) [Example 829], the Ki (Table 1, class symbols) was < 500 nM.

Take `CC1(C)NCCc2c1oc1cc(S(=O)(=O)c3cc[nH]c(=O)c3)ccc21` [Example 366]: where the note is “Table 1, class symbols”, the Ki is < 500 nM.

`CC(C)Oc1cccc(S(=O)(=O)c2ccc3c(c2)OC2CNCCC32)c1F` (stereo not drawn) [Example 481]: the Ki (Table 1, class symbols) is < 500 nM.

On to `O=S(=O)(c1ccc2c3c(oc2c1)[C@@]1(CCOC1)NCC3)c1cc(F)ccc1F` (single isomer, unassigned) [Example 109], for which the Ki (Table 1, class symbols) is < 500 nM.

For the compound `O=S(=O)(c1cccc(Cl)c1)c1ccc2c3c(oc2c1)CN(CCO)CC3` [Example 599], the Ki (Table 1, class symbols) was < 500 nM.

Turning to `O=S(=O)(c1ccc(Oc2ccccc2)cc1)c1ccc2oc3c(c2c1)CCNC3` [Example 248], where the note is “Table 1, class symbols”, the Ki was < 500 nM.

For the compound `COc1cccc(S(=O)(=O)c2ccc3c(c2)OC2CNCCC32C)c1` (racemic) [Example 4, 7-[(3-methoxyphenyl)sulfonyl]-4a-methyl-1,2,3,4,4a,9a-hexahydro[1]benzofuro[2,3-c]pyridine], the inhibition constant Ki (Table 1, class symbols) was < 500 nM.

`O=S(=O)(c1cc(F)cc(F)c1)c1ccc2c3c([nH]c2c1)C1(CCCOC1)NCC3` (stereo not drawn) [Example 312]: the inhibition constant (Ki) (Table 1, class symbols) was < 500 nM.

Regarding `O=S(=O)(Oc1ccc2c(c1)OC1CNCCC21)c1ccccc1` (stereo not drawn) [Example 636], the Ki (Table 1, class symbols) was < 500 nM.

Turning to `Cc1oncc1S(=O)(=O)Oc1ccc2c(c1)OC1CNCCC21` (stereo not drawn) [Example 640], the inhibition constant (Ki) (Table 1, class symbols) is > 1000 nM.

`CC1NCCc2c1oc1cc(S(=O)(=O)c3ccc(F)c(F)c3)ccc21` (stereo not drawn) [Example 238]: the Ki (Table 1, class symbols) is < 500 nM.

In the case of `[O-][S+](c1ccc2c(c1)OC1CNCCC21)c1cc(Cl)ccc1Cl` (stereo not drawn) [Example 135], where the note is “Table 1, class symbols”, the Ki is > 1000 nM.

Turning to `COC(=O)c1cc(Cl)cc(S(=O)(=O)c2ccc3c(c2)OC2CNCCC32)c1` (stereo not drawn) [Example 387], under “Table 1, class symbols”, the Ki was > 1000 nM.

With `Cc1c(S(=O)(=O)c2ccc3c4c(oc3c2)C(C)(C)NCC4)ccc[n+]1[O-]` [Example 374], for the setting “Table 1, class symbols”, the Ki was > 1000 nM.

On to `CC1NCCc2c1oc1ccc(S(=O)(=O)c3cccc(C(F)(F)F)c3)cc21` (stereo not drawn) [Example 282], for which, under “Table 1, class symbols”, the Ki is < 500 nM.

For `O=S(=O)(Oc1ccc2c(c1)C1CCNCC1O2)c1ccc(F)cc1F` (stereo not drawn) [Example 712], the Ki (Table 1, class symbols) is > 1000 nM.

`CC(=O)Nc1ccc(S(=O)(=O)Oc2ccc3c(c2)OC2CNCCC32)cc1` (stereo not drawn) [Example 667]: where the note is “Table 1, class symbols”, the inhibition constant (Ki) is > 1000 nM.

`O=S(=O)(c1cc(F)cc(Cl)c1)c1ccc2c(c1)OC1CNCCC21` (stereo not drawn) [Example 147]: the Ki (Table 1, class symbols) was < 500 nM.

As to `Cc1c(S(=O)(=O)Oc2ccc3c(c2)C2(C)CCNCC2O3)sc2ccc(Cl)cc12` (stereo not drawn) [Example 783], under “Table 1, class symbols”, the Ki lay in the range of 500 to 1000 nM.

Take `O=S(=O)(c1ccccc1)c1ccc2c(c1)C1CCNCC1O2` (stereo not drawn) [Example 181, 6-(phenylsulfonyl)-1,2,3,4,4a,9a-hexahydro[1]benzofuro[2,3-c]pyridine]: the Ki (Table 1, class symbols) is > 1000 nM.

On to `O=S(=O)(Oc1ccc2c(c1)OC1CNCCC21)c1ccccn1` (stereo not drawn) [Example 689], for which the Ki (Table 1, class symbols) was > 1000 nM.

For the compound `O=S(=O)(Nc1ccc2c(c1)C1CCNCC1O2)c1ccc2ccccc2c1` (stereo not drawn) [Example 819], the Ki (Table 1, class symbols) was < 500 nM.

On to `O=S(=O)(c1ccncc1)c1ccc2c(c1)OC1CNCCC21` (stereo not drawn) [Example 330], for which the Ki (Table 1, class symbols) was > 1000 nM.

Consider `CC1(C)NCCc2c1oc1cc(S(=O)(=O)c3c[nH]c(=O)c(C(F)(F)F)c3)ccc21` [Example 377], for which, under “Table 1, class symbols”, the Ki was > 1000 nM.

With `CN(C)C(=O)c1c(F)cccc1S(=O)(=O)c1ccc2c3c(oc2c1)CNCC3` [Example 479], the Ki (Table 1, class symbols) is > 1000 nM.

As for `O=S(=O)(c1cccc(F)c1)c1ccc2oc3c(c2c1)CCNC3C(F)(F)F` (stereo not drawn) [Example 511], the Ki (Table 1, class symbols) was > 1000 nM.

As for `CC(=O)NCCC1NCCc2c1oc1ccc(S(=O)(=O)c3cccc(F)c3)cc21` (stereo not drawn) [Example 532, N-(2-{6-[(3-fluorophenyl)sulfonyl]-1,2,3,4-tetrahydro[1]benzofuro[2,3-c]pyridin-1-yl}ethyl)acetamide], the Ki (Table 1, class symbols) was in the range of 500 to 1000 nM.

In the case of `CC(C)Oc1cccc(S(=O)(=O)c2ccc3c(c2)OC2CNCCC32C)c1` (single isomer, unassigned) [Example 20, 4a-methyl-7-{[3-(propan-2-yloxy)phenyl]sulfonyl}-1,2,3,4,4a,9a-hexahydro[1]benzofuro[2,3-c]pyridine], the Ki (Table 1, class symbols) is < 500 nM.

For the compound `CC(=O)Nc1ccc(S(=O)(=O)Oc2ccc3c(c2)C2CCNCC2O3)cc1` (stereo not drawn) [Example 728], for the setting “Table 1, class symbols”, the Ki is > 1000 nM.

Turning to `O=S(=O)(c1cccc(Br)c1)c1ccc2c(c1)OC1CNCCC21` (stereo not drawn) [Example 133], the Ki (Table 1, class symbols) is < 500 nM.

Regarding `C#CCOc1cccc(S(=O)(=O)c2ccc3c(c2)OC2CNCCC32)c1` (stereo not drawn) [Example 549], the Ki (Table 1, class symbols) is < 500 nM.

As to `O=S(=O)(c1cccc(Cl)c1)c1ccc2c3c(oc2c1)CN(Cc1ccccc1)CC3` [Example 603], under “Table 1, class symbols”, the Ki was < 500 nM.

Usually Ki stands for a dissociation constant, usually derived from enzyme kinetics or from competition with a known ligand.
